According to ChEMBL document CHEMBL4184172, “Isosteric ribavirin analogues: Synthesis and antiviral activities” (Bioorg Med Chem Lett, 2018):
≈ marks a conversion by molar mass, not a printed value. Calls of active or inactive are those of the source. The rule behind the calls is not given here.

Assays:
[1] = Cytotoxicity against pig SPEV cells by microscopic analysis; format: cell-based, Sus scrofa
[2] = tested on: Hepatitis C virus; assay: Antiviral activity against Hepatitis C virus infected in pig SPEV cells assessed as protection against virus-induced cytopathic effect; format: functional, organism-based, Hepacivirus hominis
[3] = tested on: Influenza A virus; assay: Antiviral activity against Influenza A virus H5N1 (A/duck/Novosibirsk/56/2005) infected in pig SPEV cells assessed as protection against virus-induced cytopathic effect; format: functional, organism-based, Influenza A virus (A/duck/Novosibirsk/56/2005(H5N1)); details: for Activity: Influenza A virus (A/duck/Novosibirsk/56/2005(H5N1))
[4] = tested on: Vero C1008; assay: Cytotoxicity against African green monkey Vero E6 cells assessed as alterations in cell morphology at 1000 ug/ml by microscopic analysis; format: cell-based; details: chlorocebus sabaeus
[5] = Cytotoxicity against pig SPEV cells at 150 ug/ml by microscopic analysis; format: cell-based, Sus scrofa
[6] = Cytotoxicity against African green monkey Vero E6 cells assessed as alterations in cell morphology by microscopic analysis; format: cell-based, Vero C1008; details: chlorocebus sabaeus
[7] = tested on: Human alphaherpesvirus 1; assay: Antiviral activity against Human herpesvirus 1 L2 infected in African green monkey Vero E6 cells assessed as protection against virus-induced cytopathic effect; format: functional, organism-based; details: Human alphaherpesvirus 1, L2, Vero C1008

Question: For `NC(=O)c1ncn([C@@H]2O[C@H](CO)[C@@H](O)[C@H]2O)n1` [RIBAVIRIN], which CC50 [1] is on record?
Answer: 75 µg/mL (≈ 307 µM)

Question: And the IC50 [2]?
Answer: 12.5 µg/mL (≈ 51.2 µM)

Question: And the IC50 [3]?
Answer: 12.5 µg/mL (≈ 51.2 µM)

Question: What does the source list for `Cc1nc(-c2ncn([C@@H]3O[C@H](CO)[C@@H](O)[C@H]3O)n2)no1`?
Answer: Activity [4]: Non-Toxic; Activity [5]: Non-Toxic; IC50 [3]: 50 µg/mL (≈ 177 µM)

Question: What does the source list for `OC[C@H]1O[C@@H](n2cnc(-c3noc(-c4ccccc4)n3)n2)[C@H](O)[C@@H]1O`?
Answer: Activity [4]: Non-Toxic; CC50 [6]: 380 µg/mL (≈ 1100 µM); Activity [5]: Non-Toxic; IC50 [2]: 8.8 µg/mL (≈ 25.5 µM)

Question: Which Activity [4] does the source give for `CC(C)c1nc(-c2ncn([C@@H]3O[C@H](CO)[C@@H](O)[C@H]3O)n2)no1` here?
Answer: Non-Toxic

Question: And the Activity [5]?
Answer: Non-Toxic

Question: And the Activity [3]?
Answer: inactive

Question: With `Cc1nc(-c2ncn([C@H]3C[C@H](O)[C@@H](CO)O3)n2)no1` as the molecule, how does the Activity [4] read?
Answer: Non-Toxic

Question: And the Activity [5]?
Answer: Non-Toxic

Question: What about the Activity [3] of the same molecule?
Answer: inactive

Question: Which results are given for `OC[C@H]1O[C@@H](n2cnc(-c3ncon3)n2)[C@H](O)[C@@H]1O`?
Answer: Activity [4]: Non-Toxic; IC50 [7]: 250 µg/mL (≈ 929 µM); Activity [5]: Non-Toxic
